Starred links: 1 amine or outer side, 2 acyl side, 3 side chain; linkers in the order of their positions; H or OH if unused. Positions of bridges follow the written chain, without caps; N, C: chain ends. Non-standard residues stand in square brackets, D forms with d. Residues, ends and D or L forms follow the SMILES beside them. *: point of attachment. Phe(4-CH2NH2) = NCc1ccc(C[C@H](N)C(=O)O)cc1; Bip = N[C@@H](Cc1ccc(-c2ccccc2)cc1)C(=O)O; dPro(4S-NH2) = N[C@@H]1CN[C@@H](C(=O)O)C1; X1 = O=C([C@H](Cc1ccn[nH]1)N[*:1])[*:2]; Phe(3-Me) = Cc1cccc(C[C@H](N)C(=O)O)c1; NMeR = CN[C@@H](CCCNC(=N)N)C(=O)O; NMeF = CN[C@@H](Cc1ccccc1)C(=O)O; Cit = NC(=O)NCCC[C@H](N)C(=O)O; Carboxymethyl = O=C(O)C*; NMeA = CN[C@@H](C)C(=O)O; Orn = NCCC[C@H](N)C(=O)O; Dab = NCC[C@H](N)C(=O)O; Abu = CC[C@H](N)C(=O)O; Dap = NC[C@H](N)C(=O)O; Sar = CNCC(=O)O
Molecular target: T1, human PD-1 (Jurkat-PD-1 cells) / PE-labeled human PD-L1-Ig (Homo sapiens, UniProt Q15116)
T1 construct: expressed in transfected cells; host or cells: Jurkat cell line over-expressing human PD-1
T1 sequence (Q15116 25-288): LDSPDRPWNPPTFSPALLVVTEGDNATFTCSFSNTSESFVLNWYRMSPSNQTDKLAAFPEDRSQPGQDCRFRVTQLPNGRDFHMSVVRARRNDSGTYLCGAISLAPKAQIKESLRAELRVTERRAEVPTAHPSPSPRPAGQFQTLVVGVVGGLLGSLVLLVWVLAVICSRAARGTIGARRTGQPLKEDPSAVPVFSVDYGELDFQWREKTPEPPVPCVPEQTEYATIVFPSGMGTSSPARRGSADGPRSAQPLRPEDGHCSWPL
Assay: Jurkat-PD-1 Cell Binding High-Content Screening Assay (CBA); Jurkat hPD1-PDL1 assay
Conditions: Jurkat cell line over-expressing human PD-1; PE-labeled PD-L1-Ig 20 nM final; compound incubated 2 hours at 37° C.; read-out: Jurkat HPD1-PDL1 IC50
Summary of the method: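 Binding of phycoerythrin-conjugated PD-L1-Ig (20 nM final) to PD-1-overexpressing Jurkat cells was read by high-content imaging. Cells in DMEM/10% FCS were exposed to compound for 2 hours at 37° C before labeled ligand was added.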

For `CC(C)C[C@@H]1NC(=O)[C@H](Cc2c[nH]c3ccccc23)NC(=O)[C@H](CC(=O)O)NC(=O)[C@H](Cc2ccc(O)cc2)NC(=O)[C@H](Cc2ccc(CN)cc2)NC(=O)CSC[C@@H](C(=O)NCC(N)=O)NC(=O)[C@H](CO)NC(=O)[C@H](C(C)C)NC(=O)[C@H](CC(C)C)NC(=O)[C@H](CC(N)=O)NC(=O)CN(C)C(=O)[C@H](C)N(C)C(=O)[C@H](C(C)C)NC(=O)[C@H](Cc2ccc(-c3ccccc3)cc2)NC1=O` [Example 1160] ({CH2CO}-[Phe(4-CH2NH2)]YDWL[Bip]V[NMeA][Sar]NLVSCG-NH2; thioether N-14), the IC50 was 870 nM.
Compound `CC(C)C[C@@H]1NC(=O)[C@H](Cc2c[nH]c3ccccc23)NC(=O)[C@H](CC(=O)O)NC(=O)[C@H](Cc2ccc(O)cc2)NC(=O)[C@H](Cc2ccccc2)NC(=O)CSC[C@@H](C(=O)N[C@@H](C)C(N)=O)NC(=O)[C@H]([C@@H](C)O)NC(=O)[C@H](C(C)C)NC(=O)[C@H](CC(C)C)NC(=O)[C@H](CC(N)=O)NC(=O)[C@H]2CCCN2C(=O)[C@H](CN)NC(=O)[C@H](C(C)C)NC(=O)[C@H](Cc2ccc(-c3ccccc3)cc2)NC1=O` [Example 1405] ({CH2CO}-FYDWL[Bip]V[Dap][dP]NLVTCA-NH2; thioether N-14) has an IC50 of 660 nM.
Work on `CC(C)C[C@@H]1NC(=O)[C@H](Cc2c[nH]c3ccccc23)NC(=O)[C@H](CC(=O)O)NC(=O)[C@H](Cc2ccccc2)NC(=O)[C@H](Cc2ccccc2)NC(=O)CSC[C@@H](C(=O)N[C@@H](C)C(N)=O)NC(=O)[C@H](CO)NC(=O)[C@H](C(C)C)NC(=O)[C@H](CC(C)C)NC(=O)[C@H](CC(N)=O)NC(=O)CN(C)C(=O)[C@H](C)N(C)C(=O)[C@H](C(C)C)NC(=O)[C@H](Cc2ccc(-c3ccccc3)cc2)NC1=O` [Example 1165] ({CH2CO}-FFDWL[Bip]V[NMeA][Sar]NLVSCA-NH2; thioether N-14) yielded an IC50 of 900 nM.
In the case of `CC[C@@H]1NC(=O)[C@H](Cc2ccc(-c3ccccc3)cc2)NC(=O)[C@H](CC(C)C)NC(=O)[C@H](Cc2c[nH]c3ccccc23)NC(=O)[C@H](CC(=O)O)NC(=O)[C@H](Cc2ccc(O)cc2)NC(=O)[C@H](Cc2ccccc2)NC(=O)CSC[C@@H](C(=O)NCC(N)=O)NC(=O)[C@H](CO)NC(=O)[C@H](C(C)C)NC(=O)[C@H](CC(C)C)NC(=O)[C@H](CCCNC(=N)N)NC(=O)CN(C)C(=O)[C@H](CCCNC(=N)N)N(C)C1=O` [Example 1234] ({CH2CO}-FYDWL[Bip][Abu][NMeR][Sar]RLVSCG-NH2; thioether N-14), the IC50 is reported as 290 nM.
Compound `CC(C)C[C@@H]1NC(=O)[C@H](CCN)NC(=O)[C@H](Cc2ccccc2)N(C)C(=O)[C@H](C)N(C)C(=O)[C@H](CCCN)NC(=O)[C@H](Cc2ccc(-c3ccccc3)cc2)NC(=O)[C@H](C(C)C)NC(=O)[C@H](Cc2c[nH]c3ccccc23)NC(=O)[C@H](CC(=O)O)NC(=O)[C@H](Cc2ccc(O)cc2)NC(=O)[C@H](Cc2ccccc2)NC(=O)CSC[C@@H](C(=O)N[C@@H](C)C(N)=O)NC(=O)[C@H]([C@@H](C)O)NC(=O)[C@H](C(C)C)NC1=O` [Example 1341] ({CH2CO}-FYDWV[Bip][Orn][NMeA][NMeF][Dab]LVTCA-NH2; thioether N-14) has an IC50 of 200 nM.
`CC(C)C[C@@H]1NC(=O)CSC[C@@H](C(=O)NCC(N)=O)NC(=O)[C@H](CO)NC(=O)[C@H](C(C)C)NC(=O)[C@H](CC(C)C)NC(=O)[C@H](CCCNC(=N)N)NC(=O)[C@H](Cc2ccccc2)N(C)C(=O)[C@H](C)N(C)C(=O)[C@H](CCCN)NC(=O)[C@H](Cc2ccc(-c3ccccc3)cc2)NC(=O)[C@H](C(C)C)NC(=O)[C@H](Cc2c[nH]c3ccccc23)NC(=O)[C@H](CC(=O)O)NC(=O)[C@H](Cc2ccc(O)cc2)NC1=O` [Example 1290] ({CH2CO}-LYDWV[Bip][Orn][NMeA][NMeF]RLVSCG-NH2; thioether N-14) gave an IC50 of 140 nM.
`CC(C)C[C@@H]1NC(=O)[C@H](Cc2c[nH]c3ccccc23)NC(=O)[C@H](CC(=O)O)NC(=O)[C@H](Cc2ccc(OCC(=O)O)cc2)NC(=O)[C@H](Cc2ccccc2)NC(=O)CSC[C@@H](C(=O)N[C@@H](C)C(N)=O)NC(=O)[C@H](CO)NC(=O)[C@H](C(C)C)NC(=O)[C@H](CC(C)C)NC(=O)[C@H](CC(N)=O)NC(=O)[C@H]2CCCN2C(=O)[C@H](C)N(C)C(=O)[C@H](C(C)C)NC(=O)[C@H](Cc2ccc(-c3ccccc3)cc2)NC1=O` [Example 1029] ({CH2CO}-FY(Carboxymethyl)DWL[Bip]V[NMeA][dP]NLVSCA-NH2; thioether N-14) gave an IC50 of 50 nM.
Compound `CC(C)C[C@@H]1NC(=O)[C@H](CCN)NC(=O)[C@H](Cc2ccccc2)N(C)C(=O)[C@H](C)N(C)C(=O)[C@H](CCC(=O)O)NC(=O)[C@H](Cc2ccc(-c3ccccc3)cc2)NC(=O)[C@H](C(C)C)NC(=O)[C@H](Cc2c[nH]c3ccccc23)NC(=O)[C@H](CC(=O)O)NC(=O)[C@H](Cc2ccc(O)cc2)NC(=O)[C@H](Cc2ccccc2)NC(=O)CSC[C@@H](C(=O)N[C@@H](CCC(=O)O)C(N)=O)NC(=O)[C@H]([C@@H](C)O)NC(=O)[C@H](C(C)C)NC1=O` [Example 1343] ({CH2CO}-FYDWV[Bip]E[NMeA][NMeF][Dab]LVTCE-NH2; thioether N-14) has an IC50 of 370 nM.
With `CC(C)C[C@@H]1NC(=O)[C@H](Cc2c[nH]c3ccccc23)NC(=O)[C@H](CC(=O)O)NC(=O)[C@H](Cc2ccc(OCC(=O)O)cc2)NC(=O)[C@H](CC(N)=O)NC(=O)CSC[C@@H](C(=O)N[C@@H](C)C(N)=O)NC(=O)[C@H](CO)NC(=O)[C@H](C(C)C)NC(=O)[C@H](CC(C)C)NC(=O)[C@H](CC(N)=O)NC(=O)[C@H]2CCCN2C(=O)[C@H](C)N(C)C(=O)[C@H](C(C)C)NC(=O)[C@H](Cc2ccc(-c3ccccc3)cc2)NC1=O` [Example 1042] ({CH2CO}-NY(Carboxymethyl)DWL[Bip]V[NMeA][dP]NLVSCA-NH2; thioether N-14) the IC50 was 70 nM.
`CC(C)C[C@@H]1NC(=O)[C@H](CCCNC(=N)N)NC(=O)[C@H](Cc2ccccc2)N(C)C(=O)[C@H](C)N(C)C(=O)[C@H](C)NC(=O)[C@H](Cc2ccc(-c3ccccc3)cc2)NC(=O)[C@H](C(C)C)NC(=O)[C@H](Cc2c[nH]c3ccccc23)NC(=O)[C@H](CC(=O)O)NC(=O)[C@H](Cc2ccc(O)cc2)NC(=O)[C@H](Cc2ccccc2)NC(=O)CSC[C@@H](C(=O)NCC(N)=O)NC(=O)[C@H](CO)NC(=O)[C@H](C(C)C)NC1=O` [Example 1208] ({CH2CO}-FYDWV[Bip]A[NMeA][NMeF]RLVSCG-NH2; thioether N-14) was tested, and the IC50 was 820 nM.
`CC(C)C[C@@H]1NC(=O)[C@H](Cc2c[nH]c3ccccc23)NC(=O)[C@H](CC(=O)O)NC(=O)[C@H](Cc2ccc(O)cc2)NC(=O)[C@H](Cc2ccn[nH]2)NC(=O)CSC[C@@H](C(=O)N[C@@H](C)C(N)=O)NC(=O)[C@H](CO)NC(=O)[C@H](C(C)C)NC(=O)[C@H](CC(C)C)NC(=O)[C@H](CC(N)=O)NC(=O)CN(C)C(=O)[C@H](C)N(C)C(=O)[C@H](C(C)C)NC(=O)[C@H](Cc2ccc(-c3ccccc3)cc2)NC1=O` [Example 1094] ({CH2CO}-[X1]YDWL[Bip]V[NMeA][Sar]NLVSCA-NH2; thioether N-14) was tested, and the IC50 was 280 nM.
`CC(C)C[C@@H]1NC(=O)[C@H](Cc2c[nH]c3ccccc23)NC(=O)[C@H](CC(=O)O)NC(=O)[C@H](Cc2ccc(O)cc2)NC(=O)[C@H](Cc2ccccc2)NC(=O)CSC[C@@H](C(=O)N[C@@H](C)C(N)=O)NC(=O)[C@H](CO)NC(=O)[C@H](C(C)C)NC(=O)[C@H](CC(C)C)NC(=O)[C@H](CC(N)=O)NC(=O)[C@H]2C[C@H](N)CN2C(=O)[C@H](C)N(C)C(=O)[C@H](C(C)C)NC(=O)[C@H](Cc2ccc(-c3ccccc3)cc2)NC1=O` [Example 1091] ({CH2CO}-FYDWL[Bip]V[NMeA][dPro(4S-NH2)]NLVSCA-NH2; thioether N-14) was tested, and the IC50 was 260 nM.
Compound `CC(C)C[C@@H]1NC(=O)[C@H](Cc2c[nH]c3ccccc23)NC(=O)[C@H](CC(=O)O)NC(=O)[C@H](Cc2ccc(O)cc2)NC(=O)[C@H](Cc2ccccc2)NC(=O)CSC[C@@H](C(=O)NCC(N)=O)NC(=O)[C@H]([C@@H](C)O)NC(=O)[C@H](C(C)C)NC(=O)[C@H](CC(C)C)NC(=O)[C@H](CC(N)=O)NC(=O)[C@H]2CCCN2C(=O)[C@H](C)N(C)C(=O)[C@H](C(C)C)NC(=O)[C@H](Cc2ccc(-c3ccccc3)cc2)NC1=O` [Example 1395] ({CH2CO}-FYDWL[Bip]V[NMeA][dP]NLVTCG-NH2; thioether N-14) has an IC50 of 160 nM.
`CC(C)C[C@@H]1NC(=O)[C@H](CCCNC(=N)N)NC(=O)[C@H](Cc2ccccc2)N(C)C(=O)[C@H](C)N(C)C(=O)[C@H](CCCNC(=N)N)NC(=O)[C@H](Cc2ccc(-c3ccccc3)cc2)NC(=O)[C@H](C(C)C)NC(=O)[C@H](Cc2c[nH]c3ccccc23)NC(=O)[C@H](CC(=O)O)NC(=O)[C@H](Cc2ccc(O)cc2)NC(=O)[C@H](CCC(=O)O)NC(=O)CSC[C@@H](C(=O)NCC(N)=O)NC(=O)[C@H](CO)NC(=O)[C@H](C(C)C)NC1=O` [Example 1210] ({CH2CO}-EYDWV[Bip]R[NMeA][NMeF]RLVSCG-NH2; thioether N-14) gave an IC50 of 600 nM.
`CC(C)C[C@@H]1NC(=O)[C@H](Cc2c[nH]c3ccccc23)NC(=O)[C@H](CC(=O)O)NC(=O)[C@H](Cc2ccc(O)cc2)NC(=O)[C@H](Cc2ccccc2)NC(=O)CSC[C@@H](C(=O)N[C@@H](C)C(N)=O)NC(=O)[C@H](CO)NC(=O)[C@H](C(C)C)NC(=O)[C@H](CC(C)C)NC(=O)[C@H](CC(N)=O)NC(=O)[C@H]2CCCN2C(=O)[C@H](CCCN)NC(=O)[C@H](C(C)C)NC(=O)[C@H](Cc2ccc(-c3ccccc3)cc2)NC1=O` [Example 1200] ({CH2CO}-FYDWL[Bip]V[Orn][dP]NLVSCA-NH2; thioether N-14) was tested, and the IC50 was 30 nM.
`Cc1cccc(C[C@@H]2NC(=O)[C@H](CC(=O)O)NC(=O)[C@H](Cc3ccc(O)cc3)NC(=O)[C@H](CC(N)=O)NC(=O)CSC[C@@H](C(=O)N[C@@H](C)C(N)=O)NC(=O)[C@H]([C@@H](C)O)NC(=O)[C@H](C(C)C)NC(=O)[C@H](CC(C)C)NC(=O)[C@H](CCN)NC(=O)[C@H](Cc3ccccc3)N(C)C(=O)[C@H](C)N(C)C(=O)[C@H](CCCNC(N)=O)NC(=O)[C@H](Cc3ccc(-c4ccccc4)cc3)NC(=O)[C@H](C(C)C)NC2=O)c1` [Example 1374] ({CH2CO}-NYD[Phe(3-Me)]V[Bip][Cit][NMeA][NMeF][Dab]LVTCA-NH2; thioether N-14) showed an IC50 of 10 nM.

— US20240360178A1, “MACROCYCLIC IMMUNOMODULATORS” (Bristol-Myers Squibb Company, priority 2021, published 2024)
